Measurements taken from patent US9481670B2, “Triazine compounds” (Sphaera Pharma PTE. Ltd., priority 2011, dated 2016).

molecular target: T1, PI3K alpha (Homo sapiens, UniProt P42336); experiment: P110 Alpha TR-FRET Assay (PI3K alpha kinase assay, HTRF Transcreener ADP Assay); assay type: biochemical; details: PI3K (WT)
T1 construct: purchased Millipore Upstate
Method in brief: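 HTRF Transcreener ADP read-out of ADP formed by PI3K (50 ng enzyme) in 50 mM HEPES pH 7.5, 5 mM MgCl2, 1 mM DTT, 30 μM Na3VO4. Compound preincubated with enzyme 20 min; reaction started with 10 μM ATP and 5 μM PIP2, run 20 min, then ADP-d2/anti-ADP cryptate detection for 1 h.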

T1 sequence (P42336 whole entry): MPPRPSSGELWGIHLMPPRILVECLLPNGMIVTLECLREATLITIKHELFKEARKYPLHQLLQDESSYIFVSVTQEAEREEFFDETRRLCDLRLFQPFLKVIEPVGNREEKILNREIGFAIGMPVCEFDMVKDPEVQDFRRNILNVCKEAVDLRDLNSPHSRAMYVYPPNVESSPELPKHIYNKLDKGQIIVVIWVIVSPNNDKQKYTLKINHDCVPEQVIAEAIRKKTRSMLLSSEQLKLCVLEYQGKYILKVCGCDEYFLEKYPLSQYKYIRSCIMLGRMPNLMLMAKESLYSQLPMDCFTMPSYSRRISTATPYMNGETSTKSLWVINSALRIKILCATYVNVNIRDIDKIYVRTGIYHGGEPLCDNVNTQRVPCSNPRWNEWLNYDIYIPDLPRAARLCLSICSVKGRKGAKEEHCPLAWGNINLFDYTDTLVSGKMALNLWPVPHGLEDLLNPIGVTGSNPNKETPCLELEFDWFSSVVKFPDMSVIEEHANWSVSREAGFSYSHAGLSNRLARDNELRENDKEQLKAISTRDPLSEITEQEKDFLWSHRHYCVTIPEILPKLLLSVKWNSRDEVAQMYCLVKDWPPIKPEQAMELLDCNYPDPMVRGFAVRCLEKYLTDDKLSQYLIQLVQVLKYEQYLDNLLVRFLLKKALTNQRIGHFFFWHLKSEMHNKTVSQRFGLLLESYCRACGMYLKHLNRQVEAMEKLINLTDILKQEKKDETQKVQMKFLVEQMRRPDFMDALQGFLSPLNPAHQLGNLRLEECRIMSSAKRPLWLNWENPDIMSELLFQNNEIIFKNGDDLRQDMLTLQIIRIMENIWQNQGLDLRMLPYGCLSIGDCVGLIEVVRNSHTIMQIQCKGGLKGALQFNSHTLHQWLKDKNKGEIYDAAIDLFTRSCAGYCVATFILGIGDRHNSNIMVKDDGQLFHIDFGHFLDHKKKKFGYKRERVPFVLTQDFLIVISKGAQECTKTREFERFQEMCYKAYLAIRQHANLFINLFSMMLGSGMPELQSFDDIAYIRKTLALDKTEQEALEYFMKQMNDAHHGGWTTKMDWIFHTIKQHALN
T1 sequence (P27986 whole entry partner): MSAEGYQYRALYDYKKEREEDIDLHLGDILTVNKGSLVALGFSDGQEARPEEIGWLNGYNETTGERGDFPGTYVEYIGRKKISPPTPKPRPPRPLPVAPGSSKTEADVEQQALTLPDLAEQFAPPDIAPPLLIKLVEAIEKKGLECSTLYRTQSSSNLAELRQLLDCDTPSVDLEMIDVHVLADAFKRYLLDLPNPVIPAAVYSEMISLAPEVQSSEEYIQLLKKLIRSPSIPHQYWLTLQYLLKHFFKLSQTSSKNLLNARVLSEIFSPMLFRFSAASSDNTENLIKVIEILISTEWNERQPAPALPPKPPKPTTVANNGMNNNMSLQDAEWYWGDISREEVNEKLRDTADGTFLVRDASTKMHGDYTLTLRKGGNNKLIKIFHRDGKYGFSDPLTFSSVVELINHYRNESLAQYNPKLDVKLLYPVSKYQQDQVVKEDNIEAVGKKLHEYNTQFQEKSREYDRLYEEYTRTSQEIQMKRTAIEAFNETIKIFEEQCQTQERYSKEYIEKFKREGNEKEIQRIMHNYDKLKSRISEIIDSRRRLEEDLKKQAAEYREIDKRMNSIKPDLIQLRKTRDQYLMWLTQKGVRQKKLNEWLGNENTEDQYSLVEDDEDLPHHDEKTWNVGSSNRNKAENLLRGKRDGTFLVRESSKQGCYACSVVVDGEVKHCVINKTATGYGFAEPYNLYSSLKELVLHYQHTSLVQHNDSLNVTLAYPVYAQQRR

IC50 [µM] | SMILES
< 5 | CN(C)C(=O)c1ccc(Oc2nc(-c3ccnc4[nH]ccc34)nc(N3CCOCC3)n2)cc1 [Compound 1058, N,N-dimethyl-4-14-{[4-5-(morpholin-4-yl)-6-1-{1H-pyrrolo[2,3-b]pyridin-4-yl}-1,3,5-triazin-2-yl]oxy}benzamide]
< 5 | Nc1ncc(-c2nc(Nc3nccs3)nc(N3CCOCC3)n2)s1 [Compound 1007, N-(4-(2-aminothiazol-5-yl)-6-morpholino-1,3,5-triazin-2-yl)thiazol-2-amine]
< 5 | CNC(=O)C(=O)Nc1ccc(Oc2nc(-c3cccc4[nH]ncc34)nc(N3CCOCC3)n2)cc1 [Compound 1100, N-(4-14-{[4-1-(1H-indazol-4-yl)-6-5-(morpholin-4-yl)-1,3,5-triazin-2-yl]oxy}phenyl)-N′-methylethanediamide]
< 5 | O=C1CCc2ccc(Oc3nc(-c4cccc5[nH]ncc45)nc(N4CCOCC4)n3)cc2N1 [Compound 1054, 7-14-{[4-1-(1H-indazol-4-yl)-6-5-(morpholin-4-yl)-1,3,5-triazin-2-yl]oxy}-1,2,3,4-tetrahydroquinolin-2-one]
> 5 | NC(=O)CNc1nc(-c2cccc(C(N)=O)c2)nc(N2CCOCC2)n1 [Compound 1135, 3-6-{4-1-[(carbamoylmethyl)amino]-6-2-(morpholin-4-yl)-1,3,5-triazin-2-yl}benzamide]
> 5 | Nc1cccc(-c2nc(NCC(=O)O)nc(N3CCOCC3)n2)c1 [Compound 1199, 2-((4-(3-aminophenyl)-6-morpholino-1,3,5-triazin-2-yl)amino)acetic acid]
< 5 | CN(C)C(=O)c1ccc(Oc2nc(-c3cnc(N)cn3)nc(N3CCOCC3)n2)cc1 [Compound 1009, 4-14-{[4-1-(5-17-aminopyrazin-2-yl)-6-5-(morpholin-4-yl)-1,3,5-triazin-2-yl]oxy}-N,N-dimethylbenzamide]
< 5 | NS(=O)(=O)N[C@H]1CC[C@H](Oc2nc(-c3cccc4[nH]ncc34)nc(N3CCOCC3)n2)CC1 [Compound 1094, N-[(1r,4r)-4-9-{[4-1-(1H-indazol-4-yl)-6-5-(morpholin-4-yl)-1,3,5-triazin-2-yl]oxy}cyclohexyl]aminosulfonamide]
> 5 | O=C(O)CNc1nc(-c2cccc(C(=O)O)c2)nc(N2CCOCC2)n1 [Compound 1161, 3-6-{4-1-[(carboxymethyl)amino]-6-2-(morpholin-4-yl)-1,3,5-triazin-2-yl}benzoic acid]
< 5 | CN(C)C(=O)c1ccc(Oc2nc(-c3cccc4[nH]ncc34)nc(N3CCCOCC3)n2)cc1 [Compound 1073, 4-7-{[4-5-(1H-indazol-4-yl)-6-3-(1,4-oxazepan-4-yl)-1,3,5-triazin-2-yl]oxy}-N,N-dimethylbenzamide]
> 5 | Nc1nc(-c2cccc3[nH]ncc23)nc(N2CCOCC2)n1 [Compound 1231, 4-2-(1H-indazol-4-yl)-6-0-(morpholin-4-yl)-1,3,5-triazin-2-amine]
< 5 | CN(C)C(=O)N1CCC(COc2nc(-c3cccc4[nH]ncc34)nc(N3CCOCC3)n2)C1 (stereo not drawn) [Compound 1109, 3-22-({[4-1-(1H-indazol-4-yl)-6-5-(morpholin-4-yl)-1,3,5-triazin-2-yl]oxy}methyl)-N,N-dimethylpyrrolidine-1-carboxamide]
< 5 | O=C(O)CCNc1nc(-c2cccc3[nH]ncc23)nc(N2CCOCC2)n1 [Compound 1227, 3-((4-(1H-indazol-4-yl)-6-morpholino-1,3,5-triazin-2-yl)amino)propanoic acid]
> 5 | CN(C)C(=O)c1cccc(Nc2nc(-c3cccc4[nH]ncc34)nc(N3CCNC(=O)C3)n2)c1 [Compound 1111, 3-((4-(1H-indazol-4-yl)-6-(3-oxopiperazin-1-yl)-1,3,5-triazin-2-yl)amino)-N,N-dimethylbenzamide]
> 5 | CN(C)C(=O)c1ccc(Oc2nc(-c3cccc4[nH]ncc34)nc(N3CCCC(C(N)=O)C3)n2)cc1 (stereo not drawn) [Compound 1039, 1-27-{4-1-[4-10-(dimethylcarbamoyl)phenoxy]-6-5-(1H-indazol-4-yl)-1,3,5-triazin-2-yl}piperidine-3-carboxamide]
< 5 | CN(C)C(=O)c1cccc(Nc2nc(-c3cccc4[nH]ncc34)nc(N3CCOCC3)n2)c1 [Compound 1190, 3-((4-(1H-indazol-4-yl)-6-morpholino-1,3,5-triazin-2-yl)amino)-N,N-dimethylbenzamide]
< 5 | Cc1c(Nc2nc(-c3cccc4[nH]ncc34)nc(N3CCOCC3)n2)cccc1C(N)=O [Compound 1186, 3-((4-(1H-indazol-4-yl)-6-morpholino-1,3,5-triazin-2-yl)amino)-2-methylbenzamide]
< 5 | CN(CC(=O)O)c1nc(-c2cccc(O)c2)nc(N2CCOCC2)n1 [Compound 1192, 2-((4-(3-hydroxyphenyl)-6-morpholino-1,3,5-triazin-2-yl)(methyl)amino)acetic acid]

IC50 [µM] | SMILES
< 5 | CS(=O)(=O)N1CCN(C(=O)c2cccc(Nc3nc(-c4cccc5[nH]ncc45)nc(N4CCOCC4)n3)c2)CC1 [Compound 1130, (3-((4-(1H-indazol-4-yl)-6-morpholino-1,3,5-triazin-2-yl)amino)phenyl)(4-(methylsulfonyl)piperazin-1-yl)methanone]
< 5 | CN1CCN(C(=O)c2cccc(Nc3nc(-c4cccc5[nH]ncc45)nc(N4CCOCC4)n3)c2)CC1 [Compound 1172, (3-((4-(1H-indazol-4-yl)-6-morpholino-1,3,5-triazin-2-yl)amino)phenyl)(4-methylpiperazin-1-yl)methanone]
< 5 | CN(C)C(=O)Cc1ccc(Oc2nc(-c3cnc(N)nc3)nc(N3CCOCC3)n2)cc1 [Compound 1006, 2-26-(4-20-{[4-3-(2-15-aminopyrimidin-5-yl)-6-5-(morpholin-4-yl)-1,3,5-triazin-2-yl]oxy}phenyl)-N,N-dimethylacetamide]
< 5 | CN(C)C(=O)c1ccc(Oc2nc(-c3ccc(N)nc3)nc(N3CCOCC3)n2)cc1 [Compound 1027, 4-14-{[4-1-(6-17-aminopyridin-3-yl)-6-5-(morpholin-4-yl)-1,3,5-triazin-2-yl]oxy}-N,N-dimethylbenzamide]
< 5 | COC(=O)CNc1nc(-c2cccc(N)c2)nc(N2CCOCC2)n1 [Compound 1197, methyl 2-((4-(3-aminophenyl)-6-morpholino-1,3,5-triazin-2-yl)amino)acetate]
< 5 | CC(C)C(=O)Nc1ccc(Oc2nc(-c3cccc4[nH]ncc34)nc(N3CCOCC3)n2)cc1 [Compound 1107, N-(4-14-{[4-1-(1H-indazol-4-yl)-6-5-(morpholin-4-yl)-1,3,5-triazin-2-yl]oxy}phenyl)-2-30-methylpropanamide]
< 5 | O=c1[nH]c2ccc(Oc3nc(-c4cccc5[nH]ncc45)nc(N4CCOCC4)n3)cc2[nH]1 [Compound 1086, 5-23-{[4-1-(1H-indazol-4-yl)-6-5-(morpholin-4-yl)-1,3,5-triazin-2-yl]oxy}-2,3-dihydro-1H-1,3-benzodiazol-2-one]
< 5 | CN(C)C(=O)c1ccc(Oc2nc(-c3cnc(N)nc3)nc(N3CCOCC3)n2)cc1 [Compound 1011, 4-14-{[4-1-(2-27-aminopyrimidin-5-yl)-6-5-(morpholin-4-yl)-1,3,5-triazin-2-yl]oxy}-N,N-dimethylbenzamide]
< 5 | c1ccc(CSc2nc(-c3cccc4[nH]ncc34)nc(N3CCOCC3)n2)cc1 [Compound 1166, 4-(4-(benzylthio)-6-(1H-indazol-4-yl)-1,3,5-triazin-2-yl)morpholine]
< 5 | CC(C)C(Nc1nc(-c2cccc(O)c2)nc(N2CCOCC2)n1)C(=O)O (stereo not drawn) [Compound 1175, 2-((4-(3-hydroxyphenyl)-6-morpholino-1,3,5-triazin-2-yl)amino)-3-methylbutanoic acid]
> 5 | CN(C)C(=O)c1ccc(Oc2nc(-c3cccc4c(=O)[nH]ccc34)nc(N3CCOCC3)n2)cc1 [Compound 1033, N,N-dimethyl-4-14-{[4-5-(morpholin-4-yl)-6-1-(1-30-oxo-1,2-dihydroisoquinolin-5-yl)-1,3,5-triazin-2-yl]oxy}benzamide]
< 5 | CC(C)(CO)Nc1nc(-c2cccc3[nH]ncc23)nc(N2CCOCC2)n1 [Compound 1232, 2-((4-(1H-indazol-4-yl)-6-morpholino-1,3,5-triazin-2-yl)amino)-2-methylpropan-1-ol]
< 5 | CSCCC(Nc1nc(-c2cccc(O)c2)nc(N2CCOCC2)n1)C(=O)O (stereo not drawn) [Compound 1136, 2-((4-(3-hydroxyphenyl)-6-morpholino-1,3,5-triazin-2-yl)amino)-4-(methylthio)butanoic acid]
< 5 | Cc1ccc(C(=O)N(C)C)cc1Nc1nc(-c2cccc3[nH]ncc23)nc(N2CCOCC2)n1 [Compound 1178, 3-((4-(1H-indazol-4-yl)-6-morpholino-1,3,5-triazin-2-yl)amino)-N,N,4-trimethylbenzamide]
< 5 | O=C1CCc2cc(Oc3nc(-c4cccc5[nH]ncc45)nc(N4CCOCC4)n3)ccc2N1 [Compound 1063, 6-14-{[4-1-(1H-indazol-4-yl)-6-5-(morpholin-4-yl)-1,3,5-triazin-2-yl]oxy}-1,2,3,4-tetrahydroquinolin-2-one]
< 5 | CN1CCN(c2nc(-c3cccc4[nH]ncc34)nc(N3CCOCC3)n2)CC1 [Compound 1228, 4-18-[4-3-(4-15-methylpiperazin-1-yl)-6-5-(morpholin-4-yl)-1,3,5-triazin-2-yl]-1H-indazole]
< 5 | CN(C)C(=O)CNc1nc(-c2cccc(O)c2)nc(N2CCOCC2)n1 [Compound 1167, 2-((4-(3-hydroxyphenyl)-6-morpholino-1,3,5-triazin-2-yl)amino)-N,N-dimethylacetamide]
< 5 | O=C1CN(C(=O)c2cccc(Nc3nc(-c4cccc5[nH]ncc45)nc(N4CCOCC4)n3)c2)CCN1 [Compound 1163, 4-(3-((4-(1H-indazol-4-yl)-6-morpholino-1,3,5-triazin-2-yl)amino)benzoyl)piperazin-2-one]
